Source: article PMC6691788, “Design and synthesis of phthalazine-based compounds as potent anticancer agents with potential antiangiogenic activity via VEGFR-2 inhibition” (Journal of Enzyme Inhibition and Medicinal Chemistry, 2019)

Experiments:
VEGFR-2 tyrosine kinase = target: T1, VEGFR-2 tyrosine kinase (Homo sapiens, UniProt P35968); assay: In vitro VEGFR-2 tyrosine kinase assay (BPS Bioscience); type: biochemical; conditions: for inhibition at 10 µM: read-out: VEGFR-2 % inhibition, 10 μM concentration
T1 construct: purchased BPS Bioscience 40301
Protocol: The VEGFR tyrosine kinase assays were performed at BPS Bioscience (www.bpsbioscience.com). All the synthesised compounds representing the six series were evaluated for their ability to inhibit VEGFR-2 tyrosine kinase at single dose of 10 µM.
The VEGFR tyrosine kinase activity at single dose concentration of 10 μM was carried out by BPS Bioscience (www.bpsbioscience.com). VEGFR (BPS#40301) served as the enzyme source and Poly (Glu, Tyr) sodium salt, (4:1, Glu:Tyr) (Sigma#P7244) served as the standardized substrate & Kinase-Glo Plus Luminescence kinase assay kit (Promega#V3772). The IC50 determination was carried out where quality control testing is routinely performed on each of the targets to insure compliance to acceptable standards. ^33P-ATP was purchased from Perkin Elmer and ADP-Glo^TM was purchased from Promega. All other materials were of standard laboratory grade.
The VEGFR tyrosine kinase activity was performed using Kinase-Glo Plus luminescence kinase assay kit (Promega). It measures kinase activity by quantitating the amount of ATP remaining in solution following a kinase reaction. The luminescent signal from the assay is correlated with the amount of ATP present and is inversely correlated with the amount of kinase activity. The compounds were diluted to 100 μM in 10% DMSO and […] of the dilution was added to a […] reaction so that the final concentration of DMSO is 1% in all of reactions. All of the enzymatic reactions were conducted at 30 °C for 40 min. The 50 μl reaction mixture contains […], pH 7.4, […], 0.1 mg/ml BSA, 0.2 mg/ml Poly (Glu, Tyr) substrate, 10 μM ATP and VEGFR. After the enzymatic reaction, […] of Kinase-GloPlus Luminescence kinase assay solution (Promega) was added to each reaction and incubate the plate for 5 min at room temperature. Luminescence signal was measured using a BioTek Synergy 2 microplate reader. The protein kinase assays used to determine IC50 value were performed using ADP-GloTM assay kit from Promega which measures the generation of ADP by the protein kinase. Generation of ADP by the protein kinase reaction leads to an increase in luminescence signal in the presence of ADP-GloTM assay kit. The assay was started by incubating the reaction mixture in a 96-well plate at 30 °C for 30 min. After the 30 min incubation period, the assay was terminated by the addition of […] of ADP-GloTM Reagent (Promega). The 96 well plate was shaken and then incubated for 40 min at ambient temperature. […] of Kinase detection reagent was added, the 96-well reaction plate was then read using the ADP-Glo Luminescences Protocol on a GloMax plate reader (Promega: Catalog #E7031). Blank control was set up that included all the assay components except the addition of appropriate substrate (replace with equal volume of kinase assay buffer). The corrected activity for each protein kinase target was determined by removing the blank control value.
VEGFR activity assays were performed in duplicate at each concentration. The luminescence data were analyzed using the computer software, Graphpad Prism. The difference between luminescence intensities in the absence of VEGFR (Lut) and in the presence of VEGFR (Luc) was defined as 100% activity (Lut - Luc). […] IC50 determination for inhibitor against VEGFR was estimated by generating a graph of log inhibitor vs normalized response with variable using the Prism software.

HCT-116 = assay: In vitro cytotoxic activity, SRB assay; type: cell-based; conditions: Homo sapiens; HCT-116, 48h
Protocol: (§1) In addition, compounds (12a, 12b, 12c, 16b, 16c and 17b) were evaluated against a third cell line (HepG-2) These first two cell lines were selected based on the sensitivity of the previously NCI-tested derivatives towards them amongst the 60 NCI panel. The growth inhibition is expressed as the median growth inhibitory concentration (IC50) which corresponds to the concentration required for 50% inhibition of cell viability and are provided in (Table S6 in supplementary material).
(§2) 5,000 cells in fresh medium were seeded in 96-well microlitre plates and left to attach for 24h. Cells were incubated with the tested compounds at concentration range from 0,1,2.5,5,10 µg/ml and incubation was continued for48h. After 48h treatment,the cells were fixed with 50µl cold 50% trichloroacetic acid (TCA )for 1h at 4 °C. Wells were then washed 5 times with water and stained for 30 min at room temperature with 50µl of 0.4%SRB dissolved in 1% acetic acid. The wells were then washed 4 times with 1% acetic acid. The plates were air dried and the dye was solubilized with 100µl/well of 10mM tris base (pH 10.5) for 5min on a shaker (Orbital Shaker OS 20,Boeco,Germany) at 1600 rpm. The optical density (O.D.)of each well was measured spectrophotometrically at 564 nm with an enzyme linked immunosorbent assay( ELIZA) micraplate reader (Tecan Sunrise,Austria).The mean back ground absorbance was subtracted automatically and mean values for each drug concentration was calculated.
(§3) The percentage of cell survival was calculated as follows:
(§4) Survival fraction =O.D.(treated cells)/O.D.(control cells)
(§5) The IC50 value (the concentration required to produce 50% inhibition of cell growth) was calculated using sigmodial dose response curve-fitting models (GraphPad,Prizm software incorporated). Each concentration was repeated 3 times.

MCF-7 = assay: In vitro cytotoxic activity, SRB assay; type: cell-based; conditions: Homo sapiens, MCF7; MCF-7, 48h
Protocol: as §1, §2, §3, §4, §5

HepG-2 = assay: In vitro cytotoxic activity, SRB assay; type: cell-based; conditions: Homo sapiens, HepG2; HepG-2, 48h
Protocol: as §1, §2, §3, §4, §5

T1 sequence (P35968 20-1356): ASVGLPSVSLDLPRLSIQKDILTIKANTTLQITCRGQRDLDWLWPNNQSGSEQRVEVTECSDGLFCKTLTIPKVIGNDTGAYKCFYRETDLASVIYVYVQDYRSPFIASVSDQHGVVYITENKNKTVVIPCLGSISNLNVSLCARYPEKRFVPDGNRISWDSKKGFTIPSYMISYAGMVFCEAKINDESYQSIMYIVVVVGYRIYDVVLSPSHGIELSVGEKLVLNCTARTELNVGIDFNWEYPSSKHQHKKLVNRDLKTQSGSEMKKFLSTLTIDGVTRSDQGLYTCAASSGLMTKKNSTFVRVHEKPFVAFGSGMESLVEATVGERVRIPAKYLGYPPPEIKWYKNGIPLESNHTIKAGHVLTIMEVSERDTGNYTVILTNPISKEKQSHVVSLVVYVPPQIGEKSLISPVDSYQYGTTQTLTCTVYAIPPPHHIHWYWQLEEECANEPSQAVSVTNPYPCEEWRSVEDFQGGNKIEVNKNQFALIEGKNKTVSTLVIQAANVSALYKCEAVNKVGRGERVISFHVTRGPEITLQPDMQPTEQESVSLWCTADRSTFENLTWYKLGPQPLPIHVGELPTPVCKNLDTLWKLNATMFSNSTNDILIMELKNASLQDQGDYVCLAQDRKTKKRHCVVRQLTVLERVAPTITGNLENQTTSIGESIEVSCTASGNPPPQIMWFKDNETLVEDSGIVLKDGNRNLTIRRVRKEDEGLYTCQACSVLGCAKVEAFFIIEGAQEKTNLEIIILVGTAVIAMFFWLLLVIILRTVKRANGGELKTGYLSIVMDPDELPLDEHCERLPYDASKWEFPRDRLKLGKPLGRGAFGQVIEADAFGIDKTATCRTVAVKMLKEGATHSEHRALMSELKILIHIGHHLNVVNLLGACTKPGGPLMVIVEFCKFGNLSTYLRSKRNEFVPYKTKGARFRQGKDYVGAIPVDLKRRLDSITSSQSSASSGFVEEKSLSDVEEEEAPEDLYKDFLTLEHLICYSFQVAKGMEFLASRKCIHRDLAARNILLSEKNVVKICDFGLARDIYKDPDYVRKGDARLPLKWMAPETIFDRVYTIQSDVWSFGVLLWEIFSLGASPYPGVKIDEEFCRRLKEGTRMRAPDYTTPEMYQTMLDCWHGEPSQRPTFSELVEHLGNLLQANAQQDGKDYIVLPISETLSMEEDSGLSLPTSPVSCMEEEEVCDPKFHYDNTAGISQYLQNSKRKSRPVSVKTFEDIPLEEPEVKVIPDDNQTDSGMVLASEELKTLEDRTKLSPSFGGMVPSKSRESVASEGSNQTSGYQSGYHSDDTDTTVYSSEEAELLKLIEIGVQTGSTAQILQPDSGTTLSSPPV

Row | SMILES | inhibition at 10 µM (VEGFR-2 tyrosine kinase) | IC50 (HCT-116) | IC50 (MCF-7) | melting point | IC50 (HepG-2) | IC50 (VEGFR-2 tyrosine kinase; 10 μM ATP/0.2 mg/ml poly-Glu-Tyr)
1 | O=C(Nc1ccc(Nc2nncc3ccccc23)cc1)c1ccccc1 [Compound 5a, N-(4-(Phthalazin-1-ylamino)phenyl)benzamide] | 4% | 977 µM | > 1000 µM | 142 to 144 °C |  | 
2 | O=C(Nc1ccccc1)Nc1ccc(Nc2nnc(Cl)c3ccccc23)cc1 [Compound 12a, 1–(4-(4Chlorophthalazin-1-ylamino)phenyl)-3-phenylurea] | 26% | 479 µM | 81.3 µM | 225 to 227 °C | > 1000 µM | 
3 | Cc1cccc(NCc2nnc(Nc3ccc(Cl)cc3)c3ccccc23)c1 [Compound 16c, N-(4-Chlorophenyl)-4-((m-tolylamino)methyl)phthalazin-1-amine] | 19% | 257 µM | > 1000 µM | 130 to 132 °C | > 1000 µM | 
4 | Cc1nnc(Nc2ccc(NC(=O)Nc3ccc(Cl)c(C(F)(F)F)c3)cc2)c2ccccc12 [Compound 6f, 1–(4-Chloro-3-(trifluoromethyl)phenyl)-3–(4-(4-methylphthalazin-1-ylamino)phenyl)-urea] | 32% | 3.1 µM | 3.2 µM | 258 to 260 °C |  | 
5 | Cc1nnc(N2CCN(C(=O)c3ccco3)CC2)c2ccccc12 [Compound 8j, Furan-2-yl-(4–(4-methylphthalazin-1-yl)piperazin-1-yl)methanone] | 10% | 479 µM | 479 µM | 90 to 92 °C |  | 
6 | Cc1nnc(Nc2ccc(NC(=O)c3ccccc3)cc2)c2ccccc12 [Compound 5c, N-(4–(4-Methylphthalazin-1-ylamino)phenyl)benzamide] | 12% | 15 µM | 22.9 µM | 283 to 285 °C |  | 
7 | O=C(Nc1ccc(Oc2nncc3ccccc23)cc1)Nc1ccc(Cl)c(C(F)(F)F)c1 [Compound 7c, 1–(4-Chloro-3-(trifluoromethyl)phenyl)-3–(4-(phthalazin-1-yloxy)phenyl)urea] | 47% | 2.6 µM | 2.5 µM | 158 to 160 °C |  | 
8 | Cc1nnc(Oc2ccc(NC(=O)Nc3ccc(Cl)c(C(F)(F)F)c3)cc2)c2ccccc12 [Compound 7f, 1–(4-Chloro-3-(trifluoromethyl)phenyl)-3–(4-(4-metyhlphthalazin-1-yloxy)phenyl)urea] | 21% | 49 µM | 31 µM | 150 to 152 °C |  | 
9 | Clc1ccc(Nc2nnc(CNc3cccc(Cl)c3)c3ccccc23)cc1 [Compound 16b, N-(4-Chlorophenyl)-4-((3-chlorophenylamino)methyl)phthalazin-1-amine] | 21% | 28.8 µM | 91 µM | 164 to 166 °C | 77.6 µM | 
10 | O=C(Nc1ccccc1)Nc1ccc(Nc2nncc3ccccc23)cc1 [Compound 6a, 1-Phenyl-3–(4-(phthalazin-1-ylamino)phenyl)urea] | 13% | 91.2 µM | 67.6 µM | 145 to 147 °C |  | 
11 | c1ccc(N2CCN(c3nncc4ccccc34)CC2)cc1 [Compound 8b, 1–(4-Phenylpiperazin-1-yl)phthalazine] | 8% | 550 µM | 363 µM | 242 to 244 °C |  | 
12 | Cc1nnc(Nc2ccc(NC(=O)Nc3ccccc3)cc2)c2ccccc12 [Compound 6d, 1–(4-(4-Metyhlphthalazin-1-ylamino)phenyl)3-phenylurea] | 15% | 57.5 µM | 67.6 µM | 284 to 286 °C |  | 
13 | Cc1cccc(OCc2nnc(Nc3ccc(Cl)cc3)c3ccccc23)c1 [Compound 17b, N-(4-Chlorophenyl)-4-(m-tolyloxymethyl)phthalazin-1-amine] | 15% | 38 µM | 13.5 µM | 193 to 195 °C | 39 µM | 
14 | O=C(Nc1ccc(Nc2nncc3ccccc23)cc1)Nc1ccc(Cl)c(C(F)(F)F)c1 [Compound 6c, 1–(4-Chloro-3-(trifluoromethyl)phenyl)-3–(4-(phthalazin-1-ylamino)phenyl)urea] | 70% | 6 µM | 6.2 µM | 288 to 291 °C |  | 13.4 µM
15 | O=C(Nc1ccccc1)Nc1ccc(Oc2nncc3ccccc23)cc1 [Compound 7a, 1-Phenyl-3–(4-(phthalazin-1-yloxy)phenyl)urea] | 5% |  |  | 180 to 182 °C |  | 
16 | Cc1nnc(Oc2ccc(NC(=O)Nc3ccccc3)cc2)c2ccccc12 [Compound 7d] | 10% | 7.2 µM | 7.8 µM | 174 to 176 °C |  | 
17 | Fc1ccccc1N1CCN(c2nncc3ccccc23)CC1 [Compound 8c, 1–(4-(2-Fluorophenyl)piperazin-1-yl)phthalazine] | 9% | 42.7 µM | 32.4 µM | 88 to 90 °C |  | 
18 | O=C(c1ccco1)N1CCN(c2nncc3ccccc23)CC1 [Compound 8e, Furan-2-yl-(4-(phthalazin-1-yl)piperazin-1-yl)methanone] | 9% | 513 µM | 190 µM | 90 to 92 °C |  | 
19 | COc1cccc2c1C(=O)c1c(O)c3c(c(O)c1C2=O)C[C@@](O)(C(=O)CO)C[C@@H]3O[C@H]1C[C@H](N)[C@H](O)[C@H](C)O1 [Dox, doxorubicin, reference compound] |  | 0.62 µM | 0.9 µM |  | 0.5 µM | 
